Source: US20250051322A1, “CRYSTAL OF S[…], SALTS OF S[…], AND CRYSTALS THEREOF” (Eisai R&D Management Co., Ltd., priority 2022, published 2025)

What was measured:
[1] = tested on: orexin/ataxin 3 mice (Tg mice); assay: Test Example 4: alertness effect and cataplexy-like behavior inhibiting effect by dark period oral administration to orexin/ataxin 3 mice; format: in vivo, mouse; settings: for sleep latency: before lights off, solvent 0.21 hour; for DREM latency: solvent 1.16 hours, assessed up to maximum 4 hours
Source text: The experimental animals used were orexin/ataxin 3 mice (orexin/ataxin-3 Tg/+ (hereunder referred to as “Tg mice”), Hara et al., Neuron, 30, 345-54, 2001) with a C57BL/6 genetic background, with wild type mice (hereunder referred to as “WT mice”) of the same litter as the control. Electroencephalogram and electromyogram measuring electrodes were surgically embedded into 12-week-old mice (+2 weeks) under isoflurane anesthesia. After surgery, and following conditioning to the illumination cycle and experimentation procedure, electroencephalogram and electromyogram measurement were carried out and mice with proper electroencephalogram and electromyogram recording were supplied for the experiment. The solvent (0 mg/kg) or a specimen (solution of compound (I) dissolved in the solvent (0.3, 1 or 3 mg/kg)) was orally administered 30 to 15 minutes before lighting was turned off. The solvent used was a 0.1 mol/L hydrochloric acid solution containing 5% (v/v) DMSO and 5% (v/v) Kolliphor^R EL. The electroencephalogram and electromyogram were recorded for about 24 hours, from 1 hour before lighting was turned off. The mice were repeatedly used, with a washout period of 2 days or longer. The electroencephalogram and electromyogram data obtained for each mouse were used to assess the sleep stage every epoch (10 seconds), using sleep analysis software (SleepSign: Kissei Comtec Co., Ltd.), up to a maximum of 4 hours. For the purpose of this experiment, cataplexy-like symptoms were defined as REM sleep appearing immediately after wakefulness (direct transitions from wake to REM sleep (DREM)) for a contiguous period of 4 epochs or longer. DREM in mice is an analog of cataplexy (Exp Neurol. 2009:217:46-54). The time until initial sleep appeared after lighting out for each mouse (sleep for contiguous 8 epochs or longer, excluding DREM) (sleep latency) and the time until initial DREM appeared (DREM latency) were measured. The numbers of mice were 8 in the solvent-administered group and 14 in the compound (I)-administered group. The sleep latency in a disease control group and a compound (I)-administered group were compared by a Dunnet-type multiple comparison test following survival time analysis in consideration of the number of experiments and use of the same individuals, with a significance level of 5% at both ends for each. The DREM latency in the normal control group and disease control group were compared by survival time analysis in consideration of the number of experiments and use of the same individuals. Cases with significance in the statistical test for the disease control group and the compound (I)-administered group were compared by a Dunnet-type multiple comparison test following survival time analysis in consideration of the number of experiments and use of the same individuals, with a significance level of 5% at both ends for each.

[2] = tested on: C57BL/6 line wild type (WT) male mice; assay: Test Example 3: alertness effect (sleep latency, EEG/EMG) by dark period oral administration to wild type mice; format: in vivo, mouse; settings: before lights off, solvent 0.23 hour
Description: The experimental animals used were C57BL/6 line wild type (WT) male mice. Electroencephalogram and electromyogram measuring electrodes were surgically embedded into 13-week-old mice under isoflurane anesthesia. After surgery, and following conditioning to the illumination cycle and experimentation procedure, electroencephalogram and electromyogram measurement were carried out and mice with proper electroencephalogram and electromyogram recordings were supplied for the experiment. The solvent (0 mg/kg) or a solution of compound (I) dissolved in the solvent (1, 3 or 10 mg/kg) was orally administered 30 to 15 minutes before lighting was turned off. The solvent used was a 0.1 mol/L hydrochloric acid solution containing 5% (v/v) DMSO and 5% (v/v) Kolliphor^R EL. The electroencephalogram and electromyogram were recorded for about 24 hours, from 1 hour before lighting was turned off. The mice were repeatedly used, with a washout period of 2 days or longer. The electroencephalogram and electromyogram data obtained for each mouse were used to assess the sleep stage every epoch (10 seconds), using sleep analysis software (SleepSign: Kissei Comtec Co., Ltd.). […] Using 16 mice in each administered group, the sleep latency in a solvent-administered group (control group) and a compound (I)-administered group were compared by a Dunnet-type multiple comparison test following survival time analysis in consideration of the number of experiments and use of the same individuals, with a significance level of 5% at both ends for each.

Male C57BL/6NCrl mice = assay: Test Example 2: increase in spontaneous movement; format: in vivo, mouse; settings: 10 mg/kg orally, measured 2 hours after administration, control group = 100%
Description: Increased movement in mice is an indicator of increased alertness time, higher body temperature and augmented cardiovascular parameters, as well as heightened alertness. In this test example, the alertness effect was evaluated by measuring spontaneous movement of the mice. Male C57BL/6NCrl mice (18-19 weeks old, Charles River Laboratories, Japan Inc., 4 mice in each group) were used for the experiment. Spontaneous movement was measured by using a movement measuring device (VersaMax Open Field, AccuScan Instruments, Inc.), irradiating infrared rays from the side sections of the measuring cage, and quantifying the number of times that the mice passed through the irradiated rays. After placing the mice in the measuring cage and conditioning for 3 hours, compound (I) was orally administered (10 mg/kg). Spontaneous movement was measured 2 hours after administration. The mice in the compound (I)-administered group were administered a solution of compound (I) dissolved in 0.1 mol/L hydrochloric acid containing 5% (v/v) DMSO and 5% (v/v) Kolliphor^R EL. For the control group, solvent alone without compound (I) was administered to the mice.
Spontaneous movement was represented as a percentage for the compound (I)-administered group, with spontaneous movement in the control group as 100%.

hOX1R = molecular target: T1, hOX1R (Homo sapiens, UniProt O43613); assay: Test Example 1-1: activating activity for OX1R (intracellular calcium, HEK293 with forced expression); format: cell-based; settings: calcium fluorescence, 3×10^-10 M to 1×10^-7 M, 10 nM OX-A as 100%
T1 construct: expressed in transfected cells; host or cells: HEK293
T1 sequence (O43613 1-425): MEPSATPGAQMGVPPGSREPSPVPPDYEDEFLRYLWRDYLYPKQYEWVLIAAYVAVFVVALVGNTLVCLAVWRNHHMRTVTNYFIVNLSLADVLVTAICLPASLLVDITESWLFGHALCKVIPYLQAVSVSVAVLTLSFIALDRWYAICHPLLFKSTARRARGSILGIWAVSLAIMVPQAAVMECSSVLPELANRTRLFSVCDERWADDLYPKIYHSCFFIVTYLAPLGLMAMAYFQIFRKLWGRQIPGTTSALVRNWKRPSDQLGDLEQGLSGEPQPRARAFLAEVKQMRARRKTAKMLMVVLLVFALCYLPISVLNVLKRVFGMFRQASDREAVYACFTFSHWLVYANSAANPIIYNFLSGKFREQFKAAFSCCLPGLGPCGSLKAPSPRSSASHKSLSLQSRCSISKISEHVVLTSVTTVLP
Description: Human Embryonic Kidney cells 293 (HEK293) cells with forced expression of hOX1R and hOX2R were seeded in a 384-well microplate (Greiner) at 10,000 per well and cultured for 24 hours in high-glucose-DMEM (FujiFilm Corp.-Wako Pure Chemical Industries, Ltd.) containing added 10% FBS (Thermo Scientific) and 1% Penicillin-Streptomycin (FujiFilm Corp.-Wako Pure Chemical Industries, Ltd.). After removing the medium, there was added 40 μL of assay buffer (20 mM HEPES (Sigma-Aldrich Japan, KK.), Hank's Balanced Salt Solution (Gibco), 0.1% BSA (Sigma-Aldrich Japan, KK.), 0.1% Pluronic F-127 (Biotium, Inc.)) containing Calcium 4 dye (Molecular Device Corporation) and 2.5 mM probenecid (Sigma-Aldrich Japan, KK.), and the mixture was incubated for 60 minutes. After further adding 20 μL of assay buffer, 20 μL of assay buffer containing the test compound was added and reaction was initiated. Change in intracellular calcium ion concentration by the reaction was measured based on the fluorescence intensity ratio in terms of the fluorescence value with dual wavelength excitation at 480 nm and 540 nm, using FDSS7000 (Hamamatsu Photonics, K.K.). The test compound was dissolved in DMSO to 10 mM, and diluted with assay buffer to a final concentration of from 3×10^−10 M to 1×10^−7 M (DMSO final concentration of 0.1%). […]

Structure (SMILES) | sleep latency ([1]; 0.3 mg/kg oral) [h] | sleep latency ([1]; 1 mg/kg oral, significant) [h] | sleep latency ([1]; 3 mg/kg oral, significant) [h] | sleep latency ([2]; 1 mg/kg oral) [h] | sleep latency ([2]; 3 mg/kg oral, significant) [h] | sleep latency ([2]; 10 mg/kg oral, significant) [h] | Spontaneous movement (% of Control) (Male C57BL/6NCrl mice) | DREM latency ([1]; 0.3 mg/kg oral, significant) [h] | DREM latency ([1]; 1 mg/kg oral, significant) [h] | DREM latency ([1]; 3 mg/kg oral, significant) [h] | EC50 (hOX1R) [nM]
CO[C@@H]1CN(c2ncc(F)cn2)CC[C@@H]1[C@@H]1C[C@H]2CC[C@@H](C1)N2[C@@H](C(N)=O)C1CC1 [Example 1, (2R)-2-cyclopropyl-2-{(1R,3S,5S)-3-[(3S,4R)-1-(5-fluoropyrimidin-2-yl)-3-methoxypiperidin-4-yl]-8-azabicyclo[3.2.1]octan-8-yl}acetamide] | 0.31 | 0.64 | 2.42 |  |  |  |  |  |  |  | 
CO[C@@H]1CN(c2ncc(F)cn2)CC[C@@H]1[C@@H]1C[C@H]2CC[C@@H](C1)N2[C@@H](C(N)=O)C1CC1 [Compound (I), (2R)-2-cyclopropyl-2-{(1R,3S,5S)-3-[(3S,4R)-1-(5-fluoropyrimidin-2-yl)-3-methoxypiperidin-4-yl]-8-azabicyclo[3.2.1]octan-8-yl}acetamide] |  |  |  | 0.28 | 0.44 | 2.07 | 865 % of Control | 1.50 | 2.26 | 4.00 | > 100
